Laboratory results reported in patent US10597388B2, “Pyridazinone herbicides” (FMC CORPORATION, priority 2014, dated 2020).

Legend:
Assay in all cases: Test C greenhouse herbicide test, pre- and postemergence
Format in all cases: in vivo
[1] = system: barnyardgrass (Echinochloa crus-galli)
Method in brief: (§1)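 Percent-control ratings (0 none, 100 complete) came from visual comparison with controls held alongside in the greenhouse for 13–15 d. Treatments covered soil application at sowing and foliar application to young plants 2–18 cm tall.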

[2] = system: blackgrass (Alopecurus myosuroides)
Method in brief: as §1

corn (Zea mays) = system: corn (Zea mays)
Method in brief: as §1

[3] = system: crabgrass, large (large crabgrass, Digitaria sanguinalis)
Method in brief: as §1

[4] = system: foxtail, giant (giant foxtail, Setaria faberii)
Method in brief: as §1

[5] = system: galium (catchweed bedstraw, Galium aparine)
Method in brief: as §1

[6] = system: lambsquarters (Chenopodium album)
Method in brief: as §1

[7] = system: morningglory (Ipomoea coccinea)
Method in brief: as §1

[8] = system: nutsedge, yellow (yellow nutsedge, Cyperus esculentus)
Method in brief: as §1

[9] = system: oilseed rape (Brassica napus)
Method in brief: as §1

[10] = system: ragweed (common ragweed, Ambrosia elatior)
Method in brief: as §1

[11] = system: ryegrass, Italian (Italian ryegrass, Lolium multiflorum)
Method in brief: as §1

soybean (Glycine max) = system: soybean (Glycine max)
Method in brief: as §1

[12] = system: velvetleaf (Abutilon theophrasti)
Method in brief: as §1

[13] = system: waterhemp (common waterhemp, Amaranthus rudis)
Method in brief: as §1

[14] = Postemergence, 31 g ai/ha, scale 0 to 100 (0 no effect, 100 complete control)
[15] = Postemergence, 62 g ai/ha, 0 to 100 scale (0 no effect, 100 complete control)
[16] = Postemergence, 250 g ai/ha, scale 0 to 100, 0 no effect, 100 complete control, 13 to 15 d
[17] = Preemergence, 31 g ai/ha, scale 0 to 100, 0 is no effect, 100 is complete control
[18] = Preemergence, 62 g ai/ha, scale 0 to 100, 0 is no effect, 100 is complete control
[19] = Preemergence, 125 g ai/ha, scale 0 to 100, 0 is no effect, 100 is complete control
[20] = Preemergence, 250 g ai/ha, scale 0 to 100, 0 no effect, 100 complete control
[21] = postemergence, 125 g ai/ha, scale 0 to 100, 0 no effect, 100 complete control

## COC(=O)Oc1c(OC)nn(C)c(=O)c1-c1c(C)ccc2ccccc12 [Compound 136]
[1]; [14]
  Plant response rating, Barnyardgrass: 15
[1]; [15]
  Barnyardgrass plant response rating: 25
[1]; Postemergence, 125 g ai/ha, scale 0 to 100, 0 is no effect, 100 is complete control
  Plant response rating, Barnyardgrass: 35
[1]; [16]
  Plant response rating, Barnyardgrass: 40
[1]; [17]
  Plant response rating, Barnyardgrass: 25
[1]; [18]
  Plant response rating, Barnyardgrass: 50
[1]; [19]
  Plant response rating, Barnyardgrass: 90
[1]; [20]
  Barnyardgrass plant response rating: 95
[2]; [14]
  Plant response rating, Blackgrass: 10
[2]; [15]
  Blackgrass plant response rating: 5
[2]; [16]
  Plant response rating, Blackgrass: 45
[2]; [17]
  Plant response rating, Blackgrass: 70
[2]; [18]
  Plant response rating, Blackgrass: 80
[2]; [19]
  Plant response rating, Blackgrass: 70
[2]; [20]
  Blackgrass plant response rating: 90
[2]; [21]
  Blackgrass plant response rating: 30
Corn (Zea mays); [14]
  Plant response rating, Corn: 0
Corn (Zea mays); [15]
  Corn plant response rating: 5
Corn (Zea mays); [16]
  Plant response rating, Corn: 10
Corn (Zea mays); [17]
  Plant response rating, Corn: 0
Corn (Zea mays); [18]
  Plant response rating, Corn: 5
Corn (Zea mays); [19]
  Plant response rating, Corn: 0
Corn (Zea mays); [20]
  Corn plant response rating: 5
Corn (Zea mays); [21]
  Corn plant response rating: 10
[3]; [14]
  Plant response rating, Crabgrass, Large: 10
[3]; [15]
  Crabgrass, Large plant response rating: 20
[3]; [16]
  Plant response rating, Crabgrass, Large: 35
[3]; [17]
  Plant response rating, Crabgrass, Large: 0
[3]; [18]
  Plant response rating, Crabgrass, Large: 5
[3]; [19]
  Plant response rating, Crabgrass, Large: 60
[3]; [20]
  Crabgrass, Large plant response rating: 95
[3]; [21]
  Crabgrass, Large plant response rating: 25
[4]; [14]
  Plant response rating, Foxtail, Giant: 35
[4]; [15]
  Foxtail, Giant plant response rating: 45
[4]; [16]
  Plant response rating, Foxtail, Giant: 90
[4]; [17]
  Plant response rating, Foxtail, Giant: 75
[4]; [18]
  Plant response rating, Foxtail, Giant: 85
[4]; [19]
  Plant response rating, Foxtail, Giant: 100
[4]; [20]
  Foxtail, Giant plant response rating: 98
[4]; [21]
  Foxtail, Giant plant response rating: 70
[5]; [14]
  Plant response rating, Galium: 90
[5]; [15]
  Galium plant response rating: 90
[5]; [16]
  Plant response rating, Galium: 95
[5]; [17]
  Plant response rating, Galium: 90
[5]; [18]
  Plant response rating, Galium: 98
[5]; [19]
  Plant response rating, Galium: 100
[5]; [20]
  Galium plant response rating: 100
[5]; [21]
  Galium plant response rating: 90
[6]; [14]
  Plant response rating, Lambsquarters: 90
[6]; [15]
  Lambsquarters plant response rating: 90
[6]; [16]
  Plant response rating, Lambsquarters: 100
[6]; [17]
  Plant response rating, Lambsquarters: 95
[6]; [18]
  Plant response rating, Lambsquarters: 90
[6]; [19]
  Plant response rating, Lambsquarters: 100
[6]; [20]
  Lambsquarters plant response rating: 100
[6]; [21]
  Lambsquarters plant response rating: 95
[7]; [14]
  Plant response rating, Morningglory: 98
[7]; [15]
  Morningglory plant response rating: 98
[7]; [16]
  Plant response rating, Morningglory: 100
[7]; [17]
  Plant response rating, Morningglory: 80
[7]; [18]
  Plant response rating, Morningglory: 95
[7]; [19]
  Plant response rating, Morningglory: 98
[7]; [20]
  Morningglory plant response rating: 98
[7]; [21]
  Morningglory plant response rating: 100
[8]; [14]
  Plant response rating, Nutsedge, Yellow: 15
[8]; [15]
  Nutsedge, Yellow plant response rating: 55
[8]; [16]
  Plant response rating, Nutsedge, Yellow: 85
[8]; [17]
  Plant response rating, Nutsedge, Yellow: 5
[8]; [18]
  Plant response rating, Nutsedge, Yellow: 35
[8]; [19]
  Plant response rating, Nutsedge, Yellow: 70
[8]; [20]
  Nutsedge, Yellow plant response rating: 80
[8]; [21]
  Nutsedge, Yellow plant response rating: 75
[9]; [14]
  Plant response rating, Oilseed Rape: 95
[9]; [15]
  Oilseed Rape plant response rating: 98
[9]; [16]
  Plant response rating, Oilseed Rape: 98
[9]; [17]
  Plant response rating, Oilseed Rape: 10
[9]; [18]
  Plant response rating, Oilseed Rape: 30
[9]; [19]
  Plant response rating, Oilseed Rape: 90
[9]; [20]
  Oilseed Rape plant response rating: 100
[9]; [21]
  Oilseed Rape plant response rating: 98
[10]; [14]
  Plant response rating, Ragweed: 0
[10]; [15]
  Ragweed plant response rating: 0
[10]; [16]
  Plant response rating, Ragweed: 5
[10]; [17]
  Plant response rating, Ragweed: 95
[10]; [18]
  Plant response rating, Ragweed: 98
[10]; [19]
  Plant response rating, Ragweed: 100
[10]; [20]
  Ragweed plant response rating: 100
[10]; [21]
  Ragweed plant response rating: 0
[11]; [14]
  Plant response rating, Ryegrass, Italian: 5
[11]; [15]
  Ryegrass, Italian plant response rating: 10
[11]; [16]
  Plant response rating, Ryegrass, Italian: 35
[11]; [17]
  Plant response rating, Ryegrass, Italian: 50
[11]; [18]
  Plant response rating, Ryegrass, Italian: 55
[11]; [19]
  Plant response rating, Ryegrass, Italian: 85
[11]; [20]
  Ryegrass, Italian plant response rating: 90
[11]; [21]
  Ryegrass, Italian plant response rating: 30
Soybean (Glycine max); [14]
  Plant response rating, Soybean: 5
Soybean (Glycine max); [15]
  Soybean plant response rating: 10
Soybean (Glycine max); [16]
  Plant response rating, Soybean: 15
Soybean (Glycine max); [17]
  Plant response rating, Soybean: 10
Soybean (Glycine max); [18]
  Plant response rating, Soybean: 10
Soybean (Glycine max); [19]
  Plant response rating, Soybean: 10
Soybean (Glycine max); [20]
  Soybean plant response rating: 20
Soybean (Glycine max); [21]
  Soybean plant response rating: 10
[12]; [14]
  Plant response rating, Velvetleaf: 75
[12]; [15]
  Velvetleaf plant response rating: 95
[12]; [16]
  Plant response rating, Velvetleaf: 98
[12]; [17]
  Plant response rating, Velvetleaf: 75
[12]; [18]
  Plant response rating, Velvetleaf: 95
[12]; [19]
  Plant response rating, Velvetleaf: 100
[12]; [20]
  Velvetleaf plant response rating: 100
[12]; [21]
  Velvetleaf plant response rating: 90
[13]; [14]
  Plant response rating, Waterhemp: 80
[13]; [15]
  Waterhemp plant response rating: 80
[13]; [16]
  Plant response rating, Waterhemp: 100
[13]; [17]
  Plant response rating, Waterhemp: 98
[13]; [18]
  Plant response rating, Waterhemp: 100
[13]; [19]
  Plant response rating, Waterhemp: 98
[13]; [20]
  Waterhemp plant response rating: 100
[13]; [21]
  Waterhemp plant response rating: 95
